Measurements taken from patent US7572765B2, “Conformationally constrained parathyroid hormone (PTH) analogs” (The General Hospital Corporation, priority 2001, dated 2009).
Square brackets hold non-standard residues; d marks the D form. Peptide text beside a SMILES is read from it. hArg = N=C(N)NCCCC[C@H](N)C(=O)O; Aib = CC(C)(N)C(=O)O

Tests used:
[1] = molecular target: T1, human P1R (Homo sapiens, UniProt Q03431); assay: cAMP stimulation in HKRK-B28 cells; assay type: cell-based; conditions: basal 4.0 ± 0.1 pmole/well not subtracted
T1 construct: expressed in transfected cells; host or cells: HKRK-B28 (porcine kidney LLC-PK1, stably transfected)
T1 sequence (Q03431 27-593): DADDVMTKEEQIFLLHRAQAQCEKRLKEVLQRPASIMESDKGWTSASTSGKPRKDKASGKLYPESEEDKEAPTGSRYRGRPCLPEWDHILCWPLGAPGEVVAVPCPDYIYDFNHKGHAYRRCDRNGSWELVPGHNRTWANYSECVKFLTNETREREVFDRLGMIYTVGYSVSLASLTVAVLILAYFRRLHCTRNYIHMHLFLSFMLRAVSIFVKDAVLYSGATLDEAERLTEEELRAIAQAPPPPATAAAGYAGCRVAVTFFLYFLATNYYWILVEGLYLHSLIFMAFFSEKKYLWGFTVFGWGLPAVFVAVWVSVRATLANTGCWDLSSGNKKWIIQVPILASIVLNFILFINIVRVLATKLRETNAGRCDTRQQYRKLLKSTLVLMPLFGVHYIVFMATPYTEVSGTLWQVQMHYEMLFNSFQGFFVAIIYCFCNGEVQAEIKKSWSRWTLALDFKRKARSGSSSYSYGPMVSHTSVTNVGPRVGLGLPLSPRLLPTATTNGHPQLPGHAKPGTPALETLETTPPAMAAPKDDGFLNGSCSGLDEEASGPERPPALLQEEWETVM
Description: Cell Culture. The cell line HKRK-B28 (Takasu, H., et al., J. Bone Miner. Res. 14:11-20 (1999)) was derived from the porcine kidney cell line, LLC-PK1 by stable transfection with plasmid DNA encoding the human P1R and expresses ˜280,000 receptors per cell. These cells, as well as COS-7 cells and SaOS-2-B10 cells, were cultured at […] in T-75 flasks ([…]) in Dulbecco's modified Eagle's medium (DMEM) supplemented with fetal bovine serum (10%), penicillin G (20 units/ml), streptomycin sulfate (20 μg/ml) and amphotericin B (0.05 μg/ml) in a humidified atmosphere containing 5% CO2. Stock solutions of EGTA/trypsin and antibiotics were from GIBCO; fetal bovine serum was from Hyclone Laboratories (Logan, Utah). COS-7 cells sub-cultured in 24-well plates were transfected with plasmid DNA (200 ng per well) encoding the wild-type human P1R or truncated human P1R deleted for residues (24-181) (Shimizu, M., et al., J. Biol. Chem. 275:21836-21843 (2000)) that was purified by cesium chloride/ethidium bromide density gradient centrifugation, and FuGENE 6 transfection reagent (Roche Indianapolis Ind.) according to the manufacturer's recommended procedure. All cells, in 24-well plates, were treated with fresh media and shifted to 33° C. for 12 to 24 h prior to assay.
cAMP Stimulation. Stimulation of cells with peptide analogs was performed in 24-well plates. Cells were rinsed with 0.5 mL of binding buffer (50 mM Tris-HCI, […], 5 mM KCl, 2 mM CaCl2, 5% heat-inactivated horse serum, 0.5% fetal bovine serum, adjusted to pH 7.5 with HCl) and treated with 200 μL of cAMP assay buffer (Delbecco's modified Eagle's medium containing 2 mM 3-isobutyl-1-methylxanthine, 1 mg/mL bovine serum albumin, 35 mM Hepes-NaOH, pH 7.4) and 100 μL of binding buffer containing varying amounts of peptide analog (final volume=300 μL). The medium was removed after incubation for 30 to 60 minutes at room temperature, and the cells were frozen on dry ice, lysed with 0.5 mL 50 mM HCl, and refrozen ([…]). The cAMP content of the diluted lysate was determined by radioimmunoassay. The EC50 response values were calculated using nonlinear regression (see below).
Data Calculation. Calculations were performed using Microsoft® Excel. Nonlinear regression analyses of binding and cAMP dose-response data were performed using the four-parameter equation: yp=Min+[(Max−Min)/(1+(IC50/x)^slope)]. The Excel Solver function was utilized for parameter optimization, as described previously (Carter, P. H., et al., Endocrinology 140: 4972-4981 (1999); Bowen, W. P., and Jerman, J. C., Trends in Pharmacol. Sci. 16: 413-417 (1995)). Differences between paired data sets were statistically evaluated using a one-tailed Student's t-test, assuming unequal variances for the two sets.

[2] = Circular dichroism spectroscopy (helical content); assay type: physicochemical
Description: Circular Dichroism. Circular Dichroism spectra were recorded on a Jasco model 710 spectropolarimeter; peptides were analyzed at a concentration of20 μM in 50 mM sodium phosphate buffer pH 7.4, or the same buffer containing 2,2,2-trifluoroethanol at 20% (v/v). Spectroscopic scans were preformed at 20° C. and at wavelengths between […], with data recored at each 1 nM interval. The spectral bandwidth was 1.5 nM and 8 scans were accumulated and averaged for each sample. At each wavelength, the mean residue elipticity [θ×100/l×C×n); where θ is the raw elipticity value (in dimensions of millidegree), l is the sample path length, C=is the molar peptide concentration, and n is the number of residues in the peptide (Bowen, W. P., and Jerman, J. C., Trends in Pharmacol. Sci. 16: 413-417 (1995)). The helical content of each peptide was estimated by dividing [θ] observed at 222 nM for that peptide by −28,100, which is the reported [θ]222obs for a model helical decapeptide (Bowen, W. P., and Jerman, J. C., Trends in Pharmacol. Sci. 16: 413-417 (1995)).
Circular dichroism (CD) spectroscopy was used to analyze the potential effects that the Aib substitutions had on peptide secondary structure when the peptides were free in solution. Samples were analyzed in both aqueous phosphate buffer and in phosphate buffer containing 2,2,2-trifloroethanol, an organic solvent which promotes helical structure in oligopeptides, including PTH peptide fragments (Pellegrini, M., et al., J. Biol. Chem. 273:10420-10427 (1998); Gronwald, W., et al., Biol. Chem. Hoppe Seyler 377:175-186 (1996); Barden, J. A., and Kemp, B. E., Biochemistry 32:7126-7132 (1993)). In phosphate buffer, the helical content of each peptide, estimated from the elipticity observed at 222 nM, was small (≦16%); however, [Aib^1,3,M]PTH(1-14) contained nearly twice as much helix as did [M]PTH(1-14) (16% and 8.1% respectively), as did [Aib^1,3,M]PTH(1-1l), as compared to […] (13% and 7.5% respectively, Table 4). […] The higher helical contents of these two peptides were evident not only from the negative elipticities at […] and 222 nM, but also from the positive elipticities at 192 nM (FIG. 6).

CC[C@H](C)[C@H](NC(=O)[C@H](CCC(=O)O)NC(=O)[C@H](C)NC(=O)C(C)(C)NC(=O)[C@H](C)N)C(=O)N[C@@H](CCC(N)=O)C(=O)N[C@@H](CC(C)C)C(=O)N[C@@H](CCSC)C(=O)N[C@@H](Cc1c[nH]cn1)C(=O)N[C@@H](CCC(N)=O)C(=O)N[C@@H](CCCCNC(=N)N)C(=O)N[C@@H](C)C(=O)N[C@@H](CCCCN)C(=O)N[C@@H](Cc1c[nH]c2ccccc12)C(N)=O [Aib-2] (H-A[Aib]AEIQLMHQ[hArg]AKW-NH2)
cAMP EMax(obs.) [1]: 168 ± 6 pmole/well

CC[C@H](C)[C@H](NC(=O)C(C)(C)NC(=O)[C@H](C)NC(=O)[C@@H](NC(=O)[C@H](C)N)C(C)C)C(=O)N[C@@H](CCC(N)=O)C(=O)N[C@@H](CC(C)C)C(=O)N[C@@H](CCSC)C(=O)N[C@@H](Cc1c[nH]cn1)C(=O)N[C@@H](CCC(N)=O)C(=O)N[C@@H](CCCCNC(=N)N)C(=O)N[C@@H](C)C(=O)N[C@@H](CCCCN)C(=O)N[C@@H](Cc1c[nH]c2ccccc12)C(N)=O [Aib-4] (H-AVA[Aib]IQLMHQ[hArg]AKW-NH2)
cAMP EMax(obs.) [1]: 221 ± 10 pmole/well

CC[C@H](C)[C@H](NC(=O)[C@H](CCC(=O)O)NC(=O)[C@H](C)NC(=O)[C@@H](NC(=O)[C@H](C)N)C(C)C)C(=O)NC(C)(C)C(=O)N[C@@H](CC(C)C)C(=O)N[C@@H](CCSC)C(=O)N[C@@H](Cc1c[nH]cn1)C(=O)N[C@@H](CCC(N)=O)C(=O)N[C@@H](CCCCNC(=N)N)C(=O)N[C@@H](C)C(=O)N[C@@H](CCCCN)C(=O)N[C@@H](Cc1c[nH]c2ccccc12)C(N)=O [Aib-6] (H-AVAEI[Aib]LMHQ[hArg]AKW-NH2)
cAMP EMax(obs.) [1]: 116 ± 12 pmole/well

CC[C@H](C)[C@H](NC(=O)[C@H](CCC(=O)O)NC(=O)[C@H](C)NC(=O)[C@@H](NC(=O)[C@H](C)N)C(C)C)C(=O)N[C@@H](CCC(N)=O)C(=O)NC(C)(C)C(=O)N[C@@H](CCSC)C(=O)N[C@@H](Cc1c[nH]cn1)C(=O)N[C@@H](CCC(N)=O)C(=O)N[C@@H](CCCCNC(=N)N)C(=O)N[C@@H](C)C(=O)N[C@@H](CCCCN)C(=O)N[C@@H](Cc1c[nH]c2ccccc12)C(N)=O [Aib-7] (H-AVAEIQ[Aib]MHQ[hArg]AKW-NH2)
cAMP EMax(obs.) [1]: 275 ± 8 pmole/well

CC[C@H](C)[C@H](NC(=O)[C@H](CCC(=O)O)NC(=O)[C@H](C)NC(=O)[C@@H](NC(=O)[C@H](C)N)C(C)C)C(=O)N[C@@H](CCC(N)=O)C(=O)N[C@@H](CC(C)C)C(=O)N[C@@H](CCSC)C(=O)N[C@@H](Cc1c[nH]cn1)C(=O)NC(C)(C)C(=O)N[C@@H](CCCCNC(=N)N)C(=O)N[C@@H](C)C(=O)N[C@@H](CCCCN)C(=O)N[C@@H](Cc1c[nH]c2ccccc12)C(N)=O [Aib-10] (H-AVAEIQLMH[Aib][hArg]AKW-NH2)
cAMP EMax(obs.) [1]: 214 ± 22 pmole/well

CC[C@H](C)[C@H](NC(=O)[C@H](CCC(=O)O)NC(=O)[C@H](C)NC(=O)[C@@H](NC(=O)[C@H](C)N)C(C)C)C(=O)N[C@@H](CCC(N)=O)C(=O)N[C@@H](CC(C)C)C(=O)N[C@@H](CCSC)C(=O)N[C@@H](Cc1c[nH]cn1)C(=O)N[C@@H](CCC(N)=O)C(=O)N[C@@H](CCCCNC(=N)N)C(=O)NC(C)(C)C(=O)N[C@@H](CCCCN)C(=O)N[C@@H](Cc1c[nH]c2ccccc12)C(N)=O [Aib-12] (H-AVAEIQLMHQ[hArg][Aib]KW-NH2)
cAMP EMax(obs.) [1]: 263 ± 9 pmole/well

CC[C@H](C)[C@H](NC(=O)[C@H](CCC(=O)O)NC(=O)[C@H](C)NC(=O)[C@@H](NC(=O)[C@H](C)N)C(C)C)C(=O)N[C@@H](CCC(N)=O)C(=O)N[C@@H](CC(C)C)C(=O)N[C@@H](CCSC)C(=O)N[C@@H](Cc1c[nH]cn1)C(=O)N[C@@H](CCC(N)=O)C(=O)N[C@@H](CCCCNC(=N)N)C(=O)N[C@@H](C)C(=O)NC(C)(C)C(=O)N[C@@H](Cc1c[nH]c2ccccc12)C(N)=O [Aib-13] (H-AVAEIQLMHQ[hArg]A[Aib]W-NH2)
cAMP EMax(obs.) [1]: 259 ± 10 pmole/well

CC[C@H](C)[C@H](NC(=O)[C@H](CCC(=O)O)NC(=O)[C@H](C)NC(=O)[C@@H](NC(=O)[C@H](C)N)C(C)C)C(=O)N[C@@H](CCC(N)=O)C(=O)N[C@@H](CC(C)C)C(=O)N[C@@H](CCSC)C(=O)N[C@@H](Cc1c[nH]cn1)C(=O)N[C@@H](CCC(N)=O)C(=O)N[C@@H](CCCCNC(=N)N)C(=O)N[C@@H](C)C(=O)N[C@@H](CCCCN)C(=O)NC(C)(C)C(N)=O [Aib-14] (H-AVAEIQLMHQ[hArg]AK[Aib]-NH2)
cAMP EMax(obs.) [1]: 273 ± 6 pmole/well

PTH(1-11): unmodified N-terminal PTH(1-11) peptide (SVSEIQLMHNL; Parathyroid hormone; UniProt P01270 32-42, looked up, fragment)
[0]222obs × 10^−3, Phos. ([2]; 20 μM peptide, 50 mM phosphate buffer pH 7.4): −1.8 | [0]222obs × 10^−3, Phos + TFE ([2]; 20 μM peptide, 50 mM phosphate buffer with trifluoroethanol (20%)): −8.4 | helical residues (%), Phos + TFE ([2]; 50 mM phosphate buffer with trifluoroethanol (20%), from elipticity at 222 nM): 30% | helical residues (%), Phos. ([2]; 50 mM phosphate buffer, from elipticity at 222 nM): 6.5%
